# Source: patent publication US5595760A, “Sustained release of peptides from pharmaceutical compositions” (Delab, priority 1995, dated 1997)
# Columns and labels:
# [1] = Solubility of the peptide salt in water; assay type: physicochemical; conditions: pH 7.0, 25° C.
# Source text: As used herein, a "gelable peptide salt" is a peptide salt which will form a gel upon contact with bodily fluids. Whether a peptide salt is "gelable," and will have the desired biological properties, can be determined by testing the peptide salt in the in vitro and in vivo assays described below. The term "peptide" means a natural or synthetic molecule comprising two or more amino acids linked by the carboxyl group of one amino acid and the amino group of another. Thus, the term includes both polypeptides and proteins. A "soluble" peptide salt is one having a solubility of 0.1 mg/ml, and preferably 1.0 mg/ml, in water at a pH of 7.0 and a temperature of 25° C.
# A solution of the peptide composition is undesirable, because such a solution, once injected, will disperse and not form the sustained-release gel of the invention. Thus, the amount of water is carefully selected to be less than that required to dissolve a specific amount of the peptide composition For example, at 25° C., pH 7.0, 1.0 ml or less of water is required when mixed with 26 mg of the acetate salt of SOMATULINE™ to avoid the formation of a solution. By using an amount of water that is less than 50 percent, and preferably less than 20 or 10 percent, of the amount of water required to dissolve a peptide salt, a semisolid or paste-like suspension, rather than a solution, is ensured.
# [2] = In vivo blood level release profile in dogs (plasma RIA); design: species or system dog; conditions: gels at sufficient dosages
# Description: Once a particular peptide salt is found to gel in any of the in vitro assays described above, an in vivo assay can be used to determine the suitability of that peptide salt for therapeutic use in animals or humans. A blood level release profile for a particular peptide salt can be determined by injecting the peptide salt into an animal, e.g., a Sprague Dawley rat or dog, and testing blood samples taken at specific time intervals, e.g., hourly intervals over 1 to 5 days, or 12 or 24 hour intervals over 5 to 45 days, for the concentration of the peptide. The suitability of a particular peptide gel, or a peptide/carrier gel, for therapeutic delivery of the peptide can thus be determined.
# Specifically, animals are anaesthetized with pentobarbital (60 mg/kg i.p. for rats), and a jugular vein is cannulated for blood sampling. A test peptide semisolid suspension or solid composition (or standard solution for comparison purposes), e.g., of SOMATULINE™, is injected subcutaneously at a specific dosage, e.g., 1.0, 3.0, or 6.0 mg/kg of SOMATULINE™. […] The amount of peptide in the plasma samples is determined by a standard radioimmunoassay (RIA) technique that allows a direct measurement without extraction of the peptide from the rat plasma. […]
smiles,measurement,setting,value
CC(C)[C@@H]1NC(=O)[C@H](CCCCN)NC(=O)[C@@H](Cc2c[nH]c3ccccc23)NC(=O)[C@H](Cc2ccc(O)cc2)NC(=O)[C@@H](NC(=O)[C@H](N)Cc2ccc3ccccc3c2)CSSC[C@@H](C(=O)N[C@H](C(N)=O)[C@@H](C)O)NC1=O [SOMATULINE™],solubility,[1],26.0 mg/mL
same,duration of sustained release of at least 1.0 ng/ml of the peptide in the blood,[2],over one month
